The source of these data is paper PMC3866151, “Phenylthiophenecarboxamide Antagonists of the Olfactory Receptor Co-Receptor Subunit from a Mosquito” (PLoS ONE, 2013).

Where two headings read alike, the source gives them in different places.

The assay addresses Cqui\Orco+Cqui\Or21 (Culex quinquefasciatus, UniProt Q309I4). Put plainly: Agonist activation (concentration-response) of the OR expressed in Xenopus oocytes, two-electrode voltage clamp. The class given is cell-based. As to the method:
Oocytes were surgically removed from mature Xenopus laevis frogs. Follicle cells were removed by treatment with Collagenase B (Boehringer Mannhem) for 2 hours at room temperature. Capped cRNA encoding each OR subunit was generated using mMessage mMachine kits (Ambion). For heteromeric ORs, 25 ng of cRNA encoding each OR subunit was injected into Stage V-VI Xenopus oocytes. For expression of Orco alone, 50 ng of cRNA was injected. Oocytes were incubated at 18°C in Barth's saline (in mM: 88 NaCl, 1 KCl, 2.4 NaHCO3, 0.3 CaNO3, 0.41 CaCl2, 0.82 MgSO4, 15 HEPES, pH 7.6, and 150 µg/ml ceftazidime) for 2–5 days prior to electrophysiological recording.
Odorant and Orco ligand induced currents were recorded under two-electrode voltage clamp, using an automated parallel electrophysiology system (OpusExpress 6000A; Molecular Devices). Oocytes were perfused with ND96 (in mM: 96 NaCl, 2 KCl, 1 CaCl2, 1 MgCl2, 5 HEPES, pH 7.5). Orco ligands were prepared as 50 or 100 mM stock solutions in DMSO and then diluted into ND96 on the day of the experiment. Unless otherwise noted, applications were for 60 sec at a flow rate of 1.0 ml/min, with extensive washing in ND96 at 4.6 ml/min between applications. For the concentration-response protocol in Figure 1d , applications were for 20 sec at a flow rate of 1.65 ml/min. Micropipettes were filled with 3 M KCl and had resistances of 0.2–2.0 MΩ. The holding potential was -70 mV. Current responses, filtered (4-pole, Bessel, low pass) at 20 Hz (-3 db) and sampled at 100 Hz, were captured and stored using OpusXpress 1.1 software (Molecular Devices).
Initial analysis of electrophysiological data was done using Clampfit 9.1 software (Molecular Devices). Curve fitting and statistical analyses were done using Prism 5 (Graphpad). Concentration-response data were fit to the equation: I = Imax/(1+(EC50/X)^n) where I represents the current response at a given concentration of odorant, X; Imax is the maximal response; EC50 is the concentration of agonist yielding a half maximal response; n is the apparent Hill coefficient. Concentration-inhibition data were fit to the equation: I = Imax / (1+ (X/IC50)^n) where I represents the current response at a given concentration of inhibitor, X; Imax is the maximal response in the absence of inhibitor; IC50 is the concentration of inhibitor present that still allows a half maximal response from odorant; n is the apparent Hill coefficient. Statistical significance was assessed using a two-tailed unpaired t test, an F test, or a one-way analysis of variance followed by the Dunnett's post-test, as appropriate.

As a reminder, the EC50 is the concentration needed to bring the measured effect to its halfway point.

Cqui\Orco+Cqui\Or21, sequence (Q309I4 entry or part of it): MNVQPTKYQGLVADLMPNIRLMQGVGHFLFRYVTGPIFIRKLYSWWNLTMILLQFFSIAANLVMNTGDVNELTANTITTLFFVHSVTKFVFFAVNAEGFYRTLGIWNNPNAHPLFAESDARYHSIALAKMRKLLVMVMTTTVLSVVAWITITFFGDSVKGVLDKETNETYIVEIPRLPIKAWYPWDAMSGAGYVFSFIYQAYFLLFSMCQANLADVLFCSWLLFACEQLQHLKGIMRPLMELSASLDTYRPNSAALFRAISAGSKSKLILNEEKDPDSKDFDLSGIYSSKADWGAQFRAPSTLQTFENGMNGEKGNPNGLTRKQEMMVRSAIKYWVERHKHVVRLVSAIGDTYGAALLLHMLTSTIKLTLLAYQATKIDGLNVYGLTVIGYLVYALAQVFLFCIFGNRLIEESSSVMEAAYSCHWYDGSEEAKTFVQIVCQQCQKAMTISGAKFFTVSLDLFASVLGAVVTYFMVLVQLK

As to `Cc1c[nH]c2ccccc12` [Compound 3MI, 3-methylindole], the EC50 is 32 ± 7 nM (3MI alone, read-out: EC50 for activation of Cqui\Orco+Cqui\Or21 by 3MI) and 37 ± 7 nM (in presence of 50 µM OX1a, read-out: EC50 for 3MI activation of Cqui\Orco+Cqui\Or21).

Consider `CCn1c(SCC(=O)Nc2ccc(C(C)C)cc2)nnc1-c1ccncc1` [OLC12, 2-((4-ethyl-5-(4-pyridinyl)-4H-1,2,4-triazol-3-yl)sulfanyl)-N-(4-isopropylphenyl)-acetamide], for which the “nH for OLC12 activation of Cqui\Orco+Cqui\Or21” value is recorded as 1.42 ± 0.32. Moreover, for the setting “read-out: EC50 for OLC12 activation of Cqui\Orco+Cqui\Or21”, the EC50 came to 6600 ± 1400 nM.
